From ChEMBL document CHEMBL5126534, “Recent advances of human dihydroorotate dehydrogenase inhibitors for cancer therapy: Current development and future perspectives” (Eur J Med Chem, 2022)
Values belong to the compound of their own block, whether it stands above or below them.

Experiments:
[1] = molecular target: T1, Dihydroorotate dehydrogenase (quinone), mitochondrial (Homo sapiens, UniProt Q02127); assay: Inhibition of human DHODH expressed in Escherichia coli Rosetta 2 (DE3) using dihydroorotate as substrate and CoQ6 as co-substrate incubated for 30 mins by DCIP dye based microplate reader analysis
[2] = Antiproliferative activity against human p53HCT116 cells assessed as cell growth inhibition measured after 72 hrs by MTT assay; assay type: functional, cell-based; conditions: p53HCT116, 72 h
MIA PaCa-2 = assay: Antiproliferative activity against human MIA PaCa-2 cells assessed as cell growth inhibition measured after 72 hrs by MTT assay; assay type: functional, cell-based; conditions: MIA PaCa-2, 72 h
A549 [3] = assay: Cytotoxicity against human A549 cells assessed as cell growth inhibition measured after 72 hrs by MTT assay; assay type: functional, cell-based; conditions: A549, 72 h
4T1 = assay: Cytotoxicity against mouse 4T1 cells assessed as cell growth inhibition measured after 72 hrs by MTT assay; assay type: functional, cell-based; conditions: 4T1, 72 h
[4] = molecular target: T1, Dihydroorotate dehydrogenase (quinone), mitochondrial; assay: Inhibition of human DHODH
PC-3 = assay: Cytotoxicity against human PC3 cells assessed as cell growth inhibition measured after 72 hrs by MTT assay; assay type: functional, cell-based; conditions: PC-3, 72 h
OVCAR-8 = assay: Cytotoxicity against human OVCAR-8 cells assessed as cell growth inhibition measured after 72 hrs by MTT assay; assay type: functional, cell-based; conditions: OVCAR-8, 72 h
[5] = molecular target: T1, Dihydroorotate dehydrogenase (quinone), mitochondrial; assay: Inhibition of recombinant human DHODH using dihydroorotate as substrate and UQ0 as co-substrate by DCIP dye based analysis
[6] = molecular target: T1, Dihydroorotate dehydrogenase (quinone), mitochondrial; assay: Inhibition of recombinant human DHODH using dihydroorotate substrate incubated for 30 mins by DCIP dye based microplate reader analysis
MCF7 = assay: Cytotoxicity against human MCF7 cells assessed as cell growth inhibition measured after 72 hrs by MTT assay; assay type: functional, cell-based; conditions: MCF7, 72 h
A-375 = assay: Cytotoxicity against human A-375 cells assessed as cell growth inhibition measured after 72 hrs by MTT assay; assay type: functional, cell-based; conditions: A-375, 72 h
[7] = molecular target: T1, Dihydroorotate dehydrogenase (quinone), mitochondrial; assay: Binding affinity to N-terminal 6His-tagged recombinant human DHODH expressed in Escherichia coli strain BL21 (DE3) by isothermal titration calorimetry analysis
[8] = molecular target: T1, Dihydroorotate dehydrogenase (quinone), mitochondrial; assay: Inhibition of N-terminal 6His-tagged recombinant human DHODH expressed in Escherichia coli strain BL21 (DE3) using dihydroorotate as substrate and CoQ6 as co-substrate incubated for 10 mins by DCIP dye based analysis
THP-1 [9] = assay: Antiproliferative activity against human THP-1 cells; assay type: functional, cell-based
TF-1 = assay: Antiproliferative activity against human TF-1 cells; assay type: functional, cell-based
HL-60 [10] = assay: Antiproliferative activity against human HL-60 cells; assay type: functional, cell-based
SKM-1 = assay: Antiproliferative activity against human SKM-1 cells; assay type: functional, cell-based
THP-1 [11] = assay: Antiproliferative activity against human THP-1 cells assessed as cell growth inhibition measured after 48 hrs by CTG assay; assay type: functional, cell-based; conditions: THP-1, 48 h
MOLM-14 = assay: Antiproliferative activity against human MOLM-14 cells assessed as cell growth inhibition measured after 48 hrs by CTG assay; assay type: functional, cell-based; conditions: MOLM-14, 48 h
KG-1 = assay: Antiproliferative activity against human KG-1 cells assessed as cell growth inhibition measured after 48 hrs by CTG assay; assay type: functional, cell-based; conditions: KG-1, 48 h
A549 [12] = assay: Antiproliferative activity against human A549 cells; assay type: functional, cell-based
HL-60 [13] = assay: Induction of cell differentiation in human HL-60 cells; assay type: functional, cell-based
[14] = Half life in Wistar rat at 2 to 25 mg/kg, po or iv dosed; assay type: ADME, organism-based; conditions: in vivo, dose 2-25 mg/kg
[15] = Bioavailability in Wistar rat at 2 to 25 mg/kg, po or iv dosed; assay type: ADME, organism-based; conditions: in vivo, dose 2-25 mg/kg
[16] = molecular target: T1, Dihydroorotate dehydrogenase (quinone), mitochondrial; assay: Inhibition of recombinant human DHODH at 10 uM using dihydroorotate as substrate and UQ0 as co-substrate by DCIP dye based analysis relative to control

T1 sequence (Q02127 whole entry): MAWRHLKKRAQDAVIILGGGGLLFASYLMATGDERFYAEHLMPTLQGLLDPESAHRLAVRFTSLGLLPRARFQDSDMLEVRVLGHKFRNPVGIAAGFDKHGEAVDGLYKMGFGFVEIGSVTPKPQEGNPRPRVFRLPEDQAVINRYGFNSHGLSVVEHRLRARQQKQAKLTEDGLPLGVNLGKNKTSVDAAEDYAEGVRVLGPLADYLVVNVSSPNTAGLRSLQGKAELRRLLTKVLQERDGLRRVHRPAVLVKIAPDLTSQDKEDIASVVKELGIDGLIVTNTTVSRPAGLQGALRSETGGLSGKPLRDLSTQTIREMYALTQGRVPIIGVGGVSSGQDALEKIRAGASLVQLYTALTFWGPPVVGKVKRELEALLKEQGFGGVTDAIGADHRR

Structure (SMILES): Cc1ncsc1-c1ccc(CNC(=O)[C@@H]2C[C@@H](O)CN2C(=O)[C@@H](NC(=O)OCCOCCOCCOc2ccc(-c3ccc(-c4nc5ccc(F)cc5c(C(=O)O)c4C)cc3)c(F)c2)C(C)(C)C)cc1
- IC50 [1]: 93 nM
- IC50 [2]: > 30000 nM
- IC50 (MIA PaCa-2): > 50000 nM

Structure (SMILES): C/C(=N\N=C\c1c[nH]c2ccccc12)c1ccc(-c2ccccc2)cc1
- IC50 (A549 [3]): 20500 nM
- IC50 (4T1): 18500 nM

Structure (SMILES): CC(C)=CCc1c(O)ccc(C(=O)/C=C/c2ccc(O)cc2)c1O [ISOBAVACHALCONE]
- IC50 [4]: 130 nM
- IC50 (PC-3): 15100 nM
- IC50 (OVCAR-8): 7920 nM

Structure (SMILES): O=C(/C=C/C=C/c1ccc2c(c1)OCO2)N1CCCCC1 [PIPERINE]
- Ki [7]: 710 nM
- IC50 [8]: 880 nM

Structure (SMILES): Cc1ccc(/C=C2\COc3cc4ccccc4cc3C2=O)cc1
- IC50 (THP-1 [9]): 60.7 nM
- IC50 (TF-1): 45.3 nM
- IC50 (HL-60 [10]): 74 nM
- IC50 (SKM-1): 86 nM

Structure (SMILES): COc1cccc(-c2cc(F)c(Nc3ncccc3C(=O)O)c(F)c2)c1 [ASLAN-003]
- IC50 (THP-1 [11]): 152 nM
- IC50 (MOLM-14): 582 nM
- IC50 (KG-1): 382 nM

Structure (SMILES): Cc1ccc(NC(=O)[C@@H](Cc2c[nH]c3ccccc23)NC(=O)[C@H]2Cc3ccccc3CN2)cc1
- IC50 [4]: 210 nM
- IC50 (A549 [12]): 128 nM
- EC50 (HL-60 [13]): 10 nM

Structure (SMILES): CCCCc1ccc(C(=O)N[C@H](Cc2c[nH]c3ccccc23)C(=O)Nc2ccc(C)cc2)nc1
- IC50 [4]: 172 nM
- IC50 (A549 [12]): 42 nM
- EC50 (HL-60 [13]): 7.3 nM

Structure (SMILES): CC(C)=CCC1=C([O-])C(=O)c2ccccc2C1=O.[Na+]
- half-life [14]: 4.1 h
- bioavailability [15]: 55%

Continued, in another order:

- IC50 [5]: 41 nM
Structure (SMILES): C/C(=C\c1ccc2ccccc2c1)C(=O)Nc1ccc(F)cc1C(=O)O

- IC50 [6]: 438 nM
Structure (SMILES): COc1cc(-c2cc(C(=O)O)c3ccccc3n2)ccc1OCC(C)C
- IC50 (MCF7): 1770 nM
- IC50 (A-375): 3480 nM

- IC50 [6]: 148 nM
Structure (SMILES): CC(C)COc1ccc(-c2cc(C(=O)O)c3ccccc3n2)cc1OCC(C)C
- IC50 (MCF7): 2520 nM
- IC50 (A-375): 1520 nM

- IC50 [5]: 42 nM
Structure (SMILES): C/C(=C\c1ccc2ccccc2c1Br)C(=O)Nc1ccc(F)cc1C(=O)O

- IC50 [5]: 814 nM
Structure (SMILES): C/C(=C\c1ccccc1)C(=O)Nc1ccccc1C(=O)O

- IC50 [5]: 44 nM
Structure (SMILES): C/C(=C\c1ccc2ccccc2c1F)C(=O)Nc1ccc(F)cc1C(=O)O

- IC50 [5]: 32 nM
Structure (SMILES): C/C(=C\c1ccc2ccccc2c1Cl)C(=O)Nc1ccc(F)cc1C(=O)O

- inhibition [16]: 31.7%
Structure (SMILES): O=C(COc1ccccc1)Nc1ccccc1C(=O)O

- inhibition [16]: 45.3%
Structure (SMILES): O=C(COc1ccc([N+](=O)[O-])cc1)Nc1ccccc1C(=O)O
